The values that follow come from ChEMBL document CHEMBL5634167, “Insights into the structure-activity relationship of the anticancer compound ZJ-101: A role played by the amide moiety” (Bioorg Med Chem Lett, 2024).

Some results are limits rather than exact numbers.

What all share (format): functional, cell-based
In one experiment the test system is MCF7. As to the kind of experiment: Antiproliferative activity against human MCF7 cells assessed inhibition of cell growth incubated for 72 hrs by alamar blue assay. The note with it: MCF7, 72 h. On the technique in general: The colour change of resazurin is a common sign of viable cells or microbes.
A further experiment deals with MDA-MB-231. Nature of the experiment: Antiproliferative activity against human MDA-MB-231 cells assessed inhibition of cell growth incubated for 72 hrs by alamar blue assay. The note with it: MDA-MB-231, 72 h.
For another experiment, the system named is HCT-116. As to the kind of experiment: Antiproliferative activity against human HCT-116 cells assessed inhibition of cell growth incubated for 72 hrs by alamar blue assay. The note with it: HCT-116, 72 h.

Regarding `CC1=C/C=C/C(=O)O[C@@H]([C@H](C)[C@H](O)[C@@H](C)NC(=O)C(C)C)[C@H](C)/C=C/C(C)=C/[C@H]2C=CCC[C@@]2(C)\C=C\1`, the figures for the IC50 in the experiment on MCF7, in the experiment with MDA-MB-231 and in the experiment on HCT-116 were 41.4 nM, 64 nM and 47.5 nM, respectively.

For `CC1=C/C=C/C(=O)O[C@@H]([C@H](C)[C@H](O)[C@@H](C)NS(C)(=O)=O)[C@H](C)/C=C/C(C)=C/[C@H]2C=CCC[C@@]2(C)\C=C\1`, the IC50 in the experiment on MCF7 worked out at 1120 nM; in the experiment with MDA-MB-231, 1010 nM; in the experiment with HCT-116, 3360 nM.

On to `CNC(=O)N[C@H](C)[C@@H](O)[C@@H](C)[C@@H]1OC(=O)/C=C/C=C(C)\C=C\[C@]2(C)CCC=C[C@@H]2/C=C(C)/C=C/[C@H]1C`, for which the half-inhibitory concentration (IC50) with MCF7 came out at 88.5 nM; in the experiment with MDA-MB-231, 104 nM; in the experiment with HCT-116 it was 136 nM.

As to `COC(=O)N[C@H](C)[C@@H](O)[C@@H](C)[C@@H]1OC(=O)/C=C/C=C(C)\C=C\[C@]2(C)CCC=C[C@@H]2/C=C(C)/C=C/[C@H]1C`, the concentration for half-maximal inhibition (IC50) in the experiment on MCF7 was above 2000 nM; with MDA-MB-231 it was above 2000 nM; with HCT-116, above 5000 nM.

Molecule `CC(=O)N[C@H](C)[C@@H](O)[C@@H](C)[C@@H]1OC(=O)/C=C/C=C(C)\C=C\[C@]2(C)CCC=C[C@@H]2/C=C(C)/C=C/[C@H]1C` gave an IC50 with HCT-116 of 88.2 nM.

Usually IC50 stands for the point on the concentration scale where inhibition reaches its midpoint.
